PMC8765048 (JCI Insight, 2022)
Where two headings read alike, the source gives them in different places.

Tests used:
[1] = tested on: SARS-CoV-2 B.1.1.7 (Alpha); assay: microbe, parasite or virus in culture; type: cell-based
SARS-CoV-2 WA1 = assay: microbe, parasite or virus in culture; type: cell-based
[2] = tested on: SARS-CoV-2 B.1.1.7 (Alpha); assay: microbe, parasite or virus in culture; type: cell-based; remark: listed apart in the source
[3] = tested on: SARS-CoV-2 B.1.429 (Epsilon); assay: microbe, parasite or virus in culture; type: cell-based
SARS-CoV-2 [4] = assay: microbe, parasite or virus in culture; type: cell-based
SARS-CoV-2 [5] = assay: Combinatorial sangivamycin/remdesivir efficacy testing, Vero E6 cells; type: cell-based; settings: read-out: IC50 (nM), S:R by [Sangivamycin]
[6] = CellTiter-Glo cell viability assay; type: cell-based; settings: human, A549 cells; A549, 72 h
[7] = CellTiter-Glo cell viability assay; type: cell-based; settings: human, Huh-7 cells; Huh-7, 72 h
[8] = CellTiter-Glo cell viability assay; type: cell-based; settings: Primary human hepatocytes
Huh-7 cells = assay: Mitochondrial dye cell imaging (MTG, NAO); type: cell-based, human; settings: 100 nM for 5 d, MTG and NAO
Source text: Other important measures of cell viability are mitochondrial integrity, function, cardiotoxicity, and genotoxicity, since other nucleoside analogs may vary in their effect on these endpoints ([29], [30]). Dyes commonly used to assess mitochondrial integrity are MitoTracker Green (MTG), a mitochondrial stain mostly localized to mitochondria based on hydrophobicity, and N-alkyl acridine orange (NAO), which binds to mitochondrial cardiolipin. Untreated Huh-7 cells and Huh-7 cells treated for 5 days with 100 nM sangivamycin were stained with MTG and NAO and imaged by fluorescence microscopy. […] To more quantitatively assess the impact of sangivamycin on mitochondrial integrity, we evaluated the effect of sangivamycin on mitochondrial metabolic function as well as cytoplasmic glycolytic function. The XF96e Seahorse instrument was used to quantify the oxygen consumption rate (OCR) over time in untreated control and sangivamycin-treated Huh-7 cells. […] Standard metabolic endpoints quantified with or without sangivamycin included sequential treatment and washout of cell cultures with oligomycin (ATP synthase inhibitor), carbonyl cyanide 4-(trifluoromethoxy)phenylhydrazone (FCCP; a proton gradient uncoupler), and antimycin A + rotenone (complex I and III blockers) (Supplemental Figure 7).
Huh-7 cells were untreated or treated with 100 nM sangivamycin for 5 days. […]

[9] = Turbidimetric aqueous solubility screening; type: physicochemical; settings: PBS, pH 7.4, PBS pH 7.4, 2 hours at 37°C, high test concentration 500 μM
Procedure: Aqueous solubility of sangivamycin was measured using a high-throughput turbidimetric assay performed by Cyprotex. Initially, sangivamycin stock DMSO solution was diluted in DMSO to produce a range of concentrations. These dilutions were added to PBS at pH 7.4 (high test concentration 500 μM) and incubated for 2 hours at 37°C. At the end of the incubation period, the absorbance at 620 nm was measured for each concentration for 2 replicates to determine turbidity from precipitate formation.

[10] = Metabolic stability testing, liver microsomes; type: in vitro ADME; settings: pH 7.4, 0.5 mg/mL microsomes, NADPH
Procedure: To evaluate metabolic stability, sangivamycin was incubated by Cyprotex in duplicate with active and heat-inactivated human and CD-1 laboratory mouse liver microsomes (0.5 mg/mL) and cofactors (2.5 mM NADPH and 3.3 mM MgCl2) in 0.1 M phosphate buffer (pH 7.4) at 37°C. Aliquots were removed at 0, 15, 30, 60, 90, and 120 minutes, and the amount of drug remaining at each time point was determined by LC-MS/MS.

[11] = tested on: Lassa virus, Ebola virus, Marburg virus, cowpox virus and vaccinia virus; settings: Vero E6 and Huh-7 cells; cited from earlier work
[12] = mice, cited from earlier work
human cancer patients = settings: 40 human cancer patients, cited from earlier work
[13] = tested on: HEK293T (human embryonic kidney); assay: CellTox Green Cytotoxicity Assay; settings: ratio > 1 cytostatic, ≤ 1 cytotoxic
A549 (human lung) = assay: CellTox Green Cytotoxicity Assay; settings: ratio > 1 cytostatic, ≤ 1 cytotoxic
[14] = tested on: HepG2 (human hepatocarcinoma); assay: CellTox Green Cytotoxicity Assay; settings: ratio > 1 cytostatic, ≤ 1 cytotoxic
[15] = tested on: Vero E6 (grivet kidney epithelial); assay: CellTox Green Cytotoxicity Assay; settings: ratio > 1 cytostatic, ≤ 1 cytotoxic
A549 cells = assay: Phospholipidosis imaging (NBD-PE fluorescence); settings: 24 h, sangivamycin up to 5 μM, melperone 10 μM, amiodarone positive control
multiple cell types = assay: CellTox Green Cytotoxicity Assay, average of 6 cell types; settings: average ± SEM, n = 6 cell lines
[16] = Severe acute respiratory syndrome coronavirus 2, Vero C1008, 24 h
[17] = Severe acute respiratory syndrome coronavirus 2, Calu-3, 72 h
[18] = Severe acute respiratory syndrome coronavirus 2, Calu-3, 24 h

Q: Which “SI (selectivity index, CC50/IC50)” value ([1]; B.1.1.7 (Alpha), Vero E6 cells) does the source give for NC(=O)c1cn([C@@H]2O[C@H](CO)[C@@H](O)[C@H]2O)c2ncnc(N)c12 [Sangivamycin, sangivamycin] here?
A: >39.0

Q: And the IC50 [1, 16]?
A: 0.0154 µM

Q: What about the IC90 [1, 16] of the same compound?
A: 0.164 µM

Q: And the IC50 (SARS-CoV-2 WA1; [17])?
A: 0.061 ± 0.008 µM

Q: What about the IC90 (SARS-CoV-2 WA1; [17]) of the same compound?
A: 0.19 ± 0.023 µM

Q: What about the “SI (selectivity index, CC50/IC50)” value (SARS-CoV-2 WA1; WA1, Calu-3 cells) of the same compound?
A: 5.3

Q: And the “SI (selectivity index, CC50/IC50)” value ([2]; B.1.1.7 (Alpha), Calu-3 cells)?
A: >10.1

Q: What about the IC50 [2, 18] of the same compound?
A: 0.0591 µM

Q: What about the IC90 [2, 18] of the same compound?
A: 0.521 µM

Q: What about the “SI (selectivity index, CC50/IC50)” value ([3]; B.1.429 (Epsilon), Calu-3 cells) of the same compound?
A: >8.4

Q: What about the IC50 [3, 18] of the same compound?
A: 0.0711 µM

Q: What about the IC90 [3, 18] of the same compound?
A: 0.234 µM

Q: And the “SI calculated with the average CellTiter-Glo values” (SARS-CoV-2 [4])?
A: 13

Q: What about the “average in vitro IC50 from all cell types tested, as dose” value (SARS-CoV-2 [4]; 2-compartment model for a 70 kg adult, water volumes 42 L) of the same compound?
A: 0.01 mg/kg

Q: What about the IC50 (SARS-CoV-2 [4]; Severe acute respiratory syndrome coronavirus 2, n = 22, read-out: average IC50 for all viral testing in all cell lines and MOIs) of the same compound?
A: 0.047 ± 0.005 µM

Q: And the “SI calculated with the average CellTox Green” value (SARS-CoV-2 [4]; average CC50 / average IC50)?
A: > 106

Q: What about the IC50 (SARS-CoV-2 [5]; Severe acute respiratory syndrome coronavirus 2, Vero C1008) of the same compound?
A: 34 nM

Q: And the IC50 (SARS-CoV-2 [5]; listed as S:R 1:0)?
A: 34.3 nM

Q: What about the CC50 at 72 h [6] of the same compound?
A: 0.173 µM

Q: And the CC50 at 72 h [7]?
A: 0.487 µM

Q: What about the CC50 at 72 h [8] of the same compound?
A: 0.439 µM

Q: What about the “Effect on mitochondrial integrity (imaging with mitochondrial dyes)” value (Huh-7 cells) of the same compound?
A: Negative

Q: And the “Effect on mitochondrial integrity (imaging with mitochondrial dyes)” value (Huh-7 cells; listed as sangivamycin)?
A: did not significantly affect mitochondrial structural integrity

Q: What about the solubility at 2 h [9] of the same compound?
A: ≥ 500 µM

Q: And the remaining at 2 h, 5 μM ([10]; CD-1, mouse, read-out: Mouse liver microsome stability (% remaining at 120 min))?
A: 100%

Q: And the remaining at 2 h, 5 μM ([10]; human, read-out: Human liver microsome stability (% remaining at 120 min))?
A: 100%

Q: What about the IC50 [11] of the same compound?
A: nanomolar range

Q: What about the CC50 (in vitro) of the same compound?
A: > 5 µM

Q: And the half-life in blood ([12]; 3H-labeled sangivamycin, i.p. 8 mg/kg)?
A: 50 h

Q: And the “drug-derived radioactivity accounted for in the urine” value ([12]; over a period of 12 days)?
A: 40%

Q: What about the MTD (human cancer patients; 0.1–2.83 mg/kg total dose) of the same compound?
A: not reached

Q: What about the tolerability (human cancer patients; daily, thrice weekly, or weekly dosing, 0.1–2.83 mg/kg total dose) of the same compound?
A: well tolerated

Q: And the “activity against the disease (cancer)” value (human cancer patients)?
A: inactive

Q: What about the “Ratio CellTox Green/CellTiter-Glo” value [13] of the same compound?
A: >5.65

Q: What about the “Ratio CellTox Green/CellTiter-Glo” value (A549 (human lung)) of the same compound?
A: >28.9

Q: And the “Ratio CellTox Green/CellTiter-Glo” value [14]?
A: >2.82

Q: What about the “Ratio CellTox Green/CellTiter-Glo” value [15] of the same compound?
A: >10.2

Q: What about the “NBD-PE fluorescence (phospholipidosis)” value (A549 cells) of the same compound?
A: no significant NBD-PE fluorescence above the DMSO control baseline

Q: What about the “Ratio CellTox Green/CellTiter-Glo, Average” value (multiple cell types) of the same compound?
A: >12.2 ± 3.78
